Where two headings read alike, the source gives them in different places.
Key:
[1] = system: Probable mesothelioma (pleural effusion); assay: MiCK assay, drug-induced apoptosis, Table 3 tumor A2; assay type: cell-based, human
Description: (§1) Data were obtained optically using Mie light-scattering.
When the optimal cell concentration is reached, put the cells in the plate and incubate overnight in the incubating chamber of the incubator (37° C.).

[2] = system: NSCLC, bilateral well-differentiated adenocarcinoma (site 1A); assay: MiCK assay, drug-induced apoptosis, Table 3 tumor B1; assay type: cell-based, human
Description: as §1
(§2) Do a test well. […] Look at the well under the inverted microscope. […] Repeat until optimal cell concentration is found. Plate the cells into the wells.

[3] = system: NSCLC, bilateral well-differentiated adenocarcinoma (site 1B); assay: MiCK assay, drug-induced apoptosis, Table 3 tumor B2; assay type: cell-based, human
Description: as §1, §2

[4] = system: NSCLC, multi-focal, recurrent adenocarcinoma (site A); assay: MiCK assay, drug-induced apoptosis, Table 3 tumor C1; assay type: cell-based, human
Description: as §1, §2

[5] = system: NSCLC, multi-focal, recurrent adenocarcinoma (site B); assay: MiCK assay, drug-induced apoptosis, Table 3 tumor C2; assay type: cell-based, human
Description: as §1, §2

[6] = system: NSCLC, multi-focal, recurrent adenocarcinoma (right lung); assay: MiCK assay, drug-induced apoptosis, Table 3 tumor D1; assay type: cell-based, human
Description: as §1, §2

[7] = system: NSCLC, multi-focal, recurrent adenocarcinoma (lymph node); assay: MiCK assay, drug-induced apoptosis, Table 3 tumor D2; assay type: cell-based, human
Description: as §1, §2

[8] = system: NSCLC, multi-focal adenocarcinoma (site A); assay: MiCK assay, drug-induced apoptosis, Table 3 tumor E1; assay type: cell-based, human
Description: as §1, §2

[9] = system: NSCLC, multi-focal adenocarcinoma (site B); assay: MiCK assay, drug-induced apoptosis, Table 3 tumor E2; assay type: cell-based, human
Description: as §1, §2

[10] = system: Lung adenocarcinoma (pleural effusion); assay: MiCK assay, drug-induced apoptosis, Table 4 tumor B1; assay type: cell-based, human
Description: as §1
(§3) Patients: Three patients were included in this study. […] Patient A was diagnosed with pancreatic islet cell cancer; sample 1 was collected from lymph node and sample 2 was collected from the primary tumor. Patient B was diagnosed with lung cancer NSCLC adenocarcinoma; sample 1 was collected from pleural effusion and sample 2 was collected from solid tumor. […] Ages of the patients ranged from 51-79 years old with an average age of 65 years. One patient was […] and two were female.

[11] = system: Lung adenocarcinoma (solid tumor); assay: MiCK assay, drug-induced apoptosis, Table 4 tumor B2; assay type: cell-based, human
Description: as §1, §3

[12] = system: Pancreatic islet cell cancer (lymph node); assay: MiCK assay, drug-induced apoptosis, Table 4 tumor A1
Description: (§4) After overnight incubation, chemotherapy drugs were added to the wells of the 96-well plate in 5 μL aliquots or to the wells of a 384-well plate in 2.5 μL aliquots using an automated pipettor. The number of drugs or drug combinations and the number of concentrations tested depended on the number of viable malignant cells that were isolated from the tumor specimen. The drug concentrations, determined by molarity, were those indicated by the manufacturer as the desired blood level concentration plus or minus one serial dilution if enough cells were available.
(§5) Following drug addition, the plate was incubated for 30 min. at 37° C. in a 5% carbon dioxide humidified atmosphere incubator. Each well was then overlayed with sterile mineral oil, and the plate was placed into the incubator chamber of a microplate spectrophotometric reader. The optical density at 600 nanometers was read and recorded every 5 minutes over a period of 48 hours.
(§6) Patients: Three patients were included in this study. Two tumor samples from different tumor sites were collected from each patient. Both samples from each patient were collected on the same day.

[13] = system: Lung small cell carcinoma (site A); assay: MiCK assay, drug-induced apoptosis, Table 4 tumor C1
Description: as §4, §5, §6

[14] = system: Lung adenocarcinoma (site B); assay: MiCK assay, drug-induced apoptosis, Table 4 tumor C2
Description: as §4
(§7) Following drug addition, the plate was incubated for 30 min. at 37° C. in a 5% carbon dioxide humidified atmosphere incubator. Each well was then overlayed with sterile mineral oil, and the plate was placed into the incubator chamber of a microplate spectrophotometric reader. The optical density at 600 nanometers was read and recorded every 5 minutes over a period of 48 hours. Optical density increases, which correlates with apoptosis, were converted to kinetic units (KU) of apoptosis by a proprietary software ProApo with a formula described in the Kravtsov reference incorporated by reference (i.e. Kravtsov V. et al. “Use of the Microculture Kinetic Assay of apoptosis to determine chemosensitivities of leukemias.” Blood 1998; 92:968-980).
(§8) Purified tumor cells were cultured for 48 hours with individual drugs, and drug-induced apoptosis was measured using the MiCK assay as described in Example 1. Data were obtained optically using Mie light-scattering.

[15] = system: Pancreatic islet cell cancer (primary tumor); assay: MiCK assay, drug-induced apoptosis, Table 4 tumor A2; conditions: 48 hours with drug
Description: as §4, §7, §8

[16] = Table 3 tumor A2: Probable mesothelioma (pleural effusion), 48 hours with drug
[17] = Table 3 tumor B1: NSCLC, bilateral well-differentiated adenocarcinoma (site 1A), 48 hours with drug
[18] = Table 3 tumor B2: NSCLC, bilateral well-differentiated adenocarcinoma (site 1B), 48 hours with drug
[19] = Table 3 tumor D1: NSCLC, multi-focal, recurrent adenocarcinoma (right lung), 48 hours with drug
[20] = Table 4 tumor B1: Lung adenocarcinoma (pleural effusion), 48 hours with drug
[21] = Table 4 tumor B2: Lung adenocarcinoma (solid tumor), 48 hours with drug
[22] = Table 4 tumor A1: Pancreatic islet cell cancer (lymph node), 48 hours with drug
[23] = Table 4 tumor C1: Lung small cell carcinoma (site A), 48 hours with drug
[24] = Table 4 tumor C2: Lung adenocarcinoma (site B), 48 hours with drug
[25] = Table 3 tumor C1: NSCLC, multi-focal, recurrent adenocarcinoma (site A), 48 hours with drug
[26] = Table 3 tumor D2: NSCLC, multi-focal, recurrent adenocarcinoma (lymph node), 48 hours with drug
[27] = Table 3 tumor E1: NSCLC, multi-focal adenocarcinoma (site A), 48 hours with drug
[28] = Table 3 tumor C2: NSCLC, multi-focal, recurrent adenocarcinoma (site B), 48 hours with drug
[29] = Table 3 tumor E2: NSCLC, multi-focal adenocarcinoma (site B), 48 hours with drug

## O=P1(N(CCCl)CCCl)NCCCO1 (stereo not shown) [4HC (Cytoxan), Cytoxan]
[1]
  kinetic units (KU) of apoptosis: 3.10 KU
[2]
  kinetic units (KU) of apoptosis: 1.10 KU
[3]
  kinetic units (KU) of apoptosis: 1.20 KU
[4]
  kinetic units (KU) of apoptosis: 0.60 KU
[5]
  kinetic units (KU) of apoptosis: 0.00 KU
[6]
  kinetic units (KU) of apoptosis: 1.20 KU
[7]
  kinetic units (KU) of apoptosis: 1.20 KU
[8]
  kinetic units (KU) of apoptosis: 0.50 KU
[9]
  kinetic units (KU) of apoptosis: 0.30 KU
[10]
  kinetic units (KU) of apoptosis: 1.20 KU
[11]
  kinetic units (KU) of apoptosis: 2.40 KU
[12]
  kinetic units (KU) of apoptosis: 3.00 KU
[13]
  kinetic units (KU) of apoptosis: 1.80 KU
[14]
  kinetic units (KU) of apoptosis: 2.40 KU

## COc1cccc2c1C(=O)c1c(O)c3c(c(O)c1C2=O)C[C@@](O)(C(=O)CO)C[C@@H]3O[C@H]1C[C@H](N)[C@@H](O)[C@H](C)O1 [Epirubicin]
[1]; [16]
  kinetic units (KU) of apoptosis: 3.80 KU
[2]; [17]
  kinetic units (KU) of apoptosis: 0.90 KU
[3]; [18]
  kinetic units (KU) of apoptosis: 1.20 KU
[6]; [19]
  kinetic units (KU) of apoptosis: 1.40 KU
[10]; [20]
  kinetic units (KU) of apoptosis: 2.70 KU
[11]; [21]
  kinetic units (KU) of apoptosis: 3.50 KU
[12]; [22]
  kinetic units (KU) of apoptosis: 1.61 KU
[13]; [23]
  kinetic units (KU) of apoptosis: 8.70 KU
[14]; [24]
  kinetic units (KU) of apoptosis: 3.20 KU

## COc1cc([C@@H]2c3cc4c(cc3[C@@H](O[C@@H]3O[C@@H]5CO[C@@H](C)O[C@H]5[C@H](O)[C@H]3O)[C@H]3COC(=O)[C@H]23)OCO4)cc(OC)c1O [Etoposide]
[1]; [16]
  kinetic units (KU) of apoptosis: 1.20 KU
[2]; [17]
  kinetic units (KU) of apoptosis: 1.10 KU
[3]; [18]
  kinetic units (KU) of apoptosis: 1.20 KU
[4]; [25]
  kinetic units (KU) of apoptosis: 0.80 KU
[6]; [19]
  kinetic units (KU) of apoptosis: 1.60 KU
[7]; [26]
  kinetic units (KU) of apoptosis: 0.90 KU
[8]; [27]
  kinetic units (KU) of apoptosis: 0.40 KU
[10]; [20]
  kinetic units (KU) of apoptosis: 2.30 KU
[12]; [22]
  kinetic units (KU) of apoptosis: 1.08 KU
[15]
  kinetic units (KU) of apoptosis: 0.00 KU
[13]; [23]
  kinetic units (KU) of apoptosis: 4.60 KU

## CO[C@H]1C[C@@H]2CC[C@@H](C)[C@@](O)(O2)C(=O)C(=O)N2CCCC[C@H]2C(=O)O[C@H]([C@H](C)C[C@@H]2CC[C@@H](OCCO)[C@H](OC)C2)CC(=O)[C@H](C)/C=C(\C)[C@@H](O)[C@@H](OC)C(=O)[C@H](C)C[C@H](C)/C=C/C=C/C=C/1C [Everolimus]
[12]; [22]
  kinetic units (KU) of apoptosis: 1.31 KU
[15]
  kinetic units (KU) of apoptosis: 0.00 KU
[13]; [23]
  kinetic units (KU) of apoptosis: 0.50 KU
[14]; [24]
  kinetic units (KU) of apoptosis: 1.00 KU

## Nc1ccn([C@@H]2O[C@H](CO)[C@@H](O)C2(F)F)c(=O)n1 [Gemcitabine]
[1]; [16]
  kinetic units (KU) of apoptosis: 0.70 KU
[2]; [17]
  kinetic units (KU) of apoptosis: 1.20 KU
[3]; [18]
  kinetic units (KU) of apoptosis: 1.10 KU
[4]; [25]
  kinetic units (KU) of apoptosis: 0.00 KU
[5]; [28]
  kinetic units (KU) of apoptosis: 0.70 KU
[6]; [19]
  kinetic units (KU) of apoptosis: 0.10 KU
[7]; [26]
  kinetic units (KU) of apoptosis: 0.90 KU
[8]; [27]
  kinetic units (KU) of apoptosis: 0.30 KU
[9]; [29]
  kinetic units (KU) of apoptosis: 0.50 KU
[10]; [20]
  kinetic units (KU) of apoptosis: 1.10 KU
[11]; [21]
  kinetic units (KU) of apoptosis: 3.20 KU
[12]; [22]
  kinetic units (KU) of apoptosis: 1.08 KU
[13]; [23]
  kinetic units (KU) of apoptosis: 2.20 KU
[14]; [24]
  kinetic units (KU) of apoptosis: 1.30 KU

## CCc1c2c(nc3ccc(OC(=O)N4CCC(N5CCCCC5)CC4)cc13)-c1cc3c(c(=O)n1C2)COC(=O)[C@]3(O)CC [Irinotecan]
[1]; [16]
  kinetic units (KU) of apoptosis: 1.30 KU
[2]; [17]
  kinetic units (KU) of apoptosis: 1.60 KU
[3]; [18]
  kinetic units (KU) of apoptosis: 1.50 KU
[4]; [25]
  kinetic units (KU) of apoptosis: 0.40 KU
[5]; [28]
  kinetic units (KU) of apoptosis: 0.30 KU
[6]; [19]
  kinetic units (KU) of apoptosis: 0.40 KU
[7]; [26]
  kinetic units (KU) of apoptosis: 0.90 KU
[8]; [27]
  kinetic units (KU) of apoptosis: 0.60 KU
[9]; [29]
  kinetic units (KU) of apoptosis: 0.10 KU
[10]; [20]
  kinetic units (KU) of apoptosis: 0.60 KU
[12]; [22]
  kinetic units (KU) of apoptosis: 1.50 KU
[15]
  kinetic units (KU) of apoptosis: 1.16 KU
[13]; [23]
  kinetic units (KU) of apoptosis: 1.40 KU
[14]; [24]
  kinetic units (KU) of apoptosis: 2.10 KU

## CN(Cc1cnc2nc(N)nc(N)c2n1)c1ccc(C(=O)N[C@@H](CCC(=O)O)C(=O)O)cc1 [Methotrexate]
[1]; [16]
  kinetic units (KU) of apoptosis: 0.50 KU
[2]; [17]
  kinetic units (KU) of apoptosis: 1.00 KU
[10]; [20]
  kinetic units (KU) of apoptosis: 1.40 KU
[11]; [21]
  kinetic units (KU) of apoptosis: 1.30 KU
[12]; [22]
  kinetic units (KU) of apoptosis: 0.66 KU
[13]; [23]
  kinetic units (KU) of apoptosis: 1.30 KU
[14]; [24]
  kinetic units (KU) of apoptosis: 0.60 KU

## O=C1[O][Pt]2([NH][C@@H]3CCCC[C@H]3[NH]2)[O]C1=O [Oxaliplatin]
[10]; [20]
  kinetic units (KU) of apoptosis: 3.00 KU
[11]; [21]
  kinetic units (KU) of apoptosis: 3.10 KU
[12]; [22]
  kinetic units (KU) of apoptosis: 1.08 KU
[13]; [23]
  kinetic units (KU) of apoptosis: 4.40 KU
[14]; [24]
  kinetic units (KU) of apoptosis: 2.50 KU

## CCN(CC)CCNC(=O)c1c(C)[nH]c(/C=C2\C(=O)Nc3ccc(F)cc32)c1C [Sunitinib]
[10]; [20]
  kinetic units (KU) of apoptosis: 0.70 KU
[12]; [22]
  kinetic units (KU) of apoptosis: 1.93 KU
[15]
  kinetic units (KU) of apoptosis: 2.06 KU

## CC[C@@]1(O)C(=O)OCc2c1cc1n(c2=O)Cc2cc3c(CN(C)C)c(O)ccc3nc2-1 [Topotecan]
[1]; [16]
  kinetic units (KU) of apoptosis: 3.60 KU
[2]; [17]
  kinetic units (KU) of apoptosis: 1.70 KU
[3]; [18]
  kinetic units (KU) of apoptosis: 0.80 KU
[4]; [25]
  kinetic units (KU) of apoptosis: 0.50 KU
[5]; [28]
  kinetic units (KU) of apoptosis: 0.00 KU
[6]; [19]
  kinetic units (KU) of apoptosis: 0.40 KU
[7]; [26]
  kinetic units (KU) of apoptosis: 1.00 KU
[8]; [27]
  kinetic units (KU) of apoptosis: 0.70 KU
[9]; [29]
  kinetic units (KU) of apoptosis: 0.30 KU
[10]; [20]
  kinetic units (KU) of apoptosis: 1.30 KU
[13]; [23]
  kinetic units (KU) of apoptosis: 9.30 KU
[14]; [24]
  kinetic units (KU) of apoptosis: 4.10 KU

## CC[C@]1(O)C[C@H]2CN(CCc3c([nH]c4ccccc34)[C@@](C(=O)OC)(c3cc4c(cc3OC)N(C=O)[C@H]3[C@@](O)(C(=O)OC)[C@H](OC(C)=O)[C@]5(CC)C=CCN6CC[C@]43[C@@H]65)C2)C1 [Vincristine]
[1]; [16]
  kinetic units (KU) of apoptosis: 2.80 KU
[2]; [17]
  kinetic units (KU) of apoptosis: 1.30 KU
[3]; [18]
  kinetic units (KU) of apoptosis: 1.50 KU
[4]; [25]
  kinetic units (KU) of apoptosis: 0.00 KU
[5]; [28]
  kinetic units (KU) of apoptosis: 0.40 KU
[6]; [19]
  kinetic units (KU) of apoptosis: 0.40 KU
[7]; [26]
  kinetic units (KU) of apoptosis: 0.90 KU
[8]; [27]
  kinetic units (KU) of apoptosis: 0.10 KU
[9]; [29]
  kinetic units (KU) of apoptosis: 0.10 KU
[10]; [20]
  kinetic units (KU) of apoptosis: 0.90 KU
[12]; [22]
  kinetic units (KU) of apoptosis: 0.82 KU
[13]; [23]
  kinetic units (KU) of apoptosis: 1.00 KU
[14]; [24]
  kinetic units (KU) of apoptosis: 1.60 KU

— patent publication US20230184744A1, “INTERTUMORAL HOMOGENEITY DETERMINED BY MiCK ASSAY” (Pierian Biosciences, LLC, priority 2014, published 2023)
